Measurements published in PubChem BioAssay (NCI).
Values joined by “and” are separate entries in the source; they are usually repeats but may differ in a detail not shown here. Identical values can stand only once.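 Exposure lasted 48 hours, with cells grown in 96-well plates and compounds tested at five concentrations. At the GI50, growth is halved. The concentration for full growth arrest is given as TGI.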

Key:
Experiment in all cases: growth of human tumour cells (NCI), 48 h
NCI-H460 lung = tested on: NCI-H460 lung
DU-145 prostate = tested on: DU-145 prostate
CAKI-1 renal = tested on: CAKI-1 renal
NCI-H226 lung = tested on: NCI-H226 lung
HOP-62 NSCLC = tested on: HOP-62 NSCLC
NCI-H522 lung = tested on: NCI-H522 lung
HT29 colon = tested on: HT29 colon
SK-MEL-2 melanoma = tested on: SK-MEL-2 melanoma
SNB-75 CNS = tested on: SNB-75 CNS
SK-OV-3 ovarian = tested on: SK-OV-3 ovarian

## CN1CCN(c2ccc(Nc3ncc4cc(C#N)c(=O)n(C5CCCC5)c4n3)cc2)CC1
NCI-H460 lung
  GI50: 0.64 µM
  TGI: > 49.3 µM
DU-145 prostate
  GI50: 2.13 µM
  TGI: > 100 µM
CAKI-1 renal
  GI50: 0.346 µM
  TGI: 17.3 µM
NCI-H226 lung
  GI50: 0.84 µM
  TGI: 10.6 µM
HOP-62 NSCLC
  GI50: 2.19 µM
  TGI: > 25.5 µM
NCI-H522 lung
  GI50: 4.29 µM
  TGI: > 100 µM
HT29 colon
  GI50: 0.6 µM
  TGI: > 100 µM
SK-MEL-2 melanoma
  GI50: 4.87 µM
  TGI: > 62.8 µM
SNB-75 CNS
  GI50: 0.336 µM
  TGI: 3.8 µM
SK-OV-3 ovarian
  GI50: 4.41 µM
  TGI: > 100 µM

## C=C1CC[C@@H](C(C)C)C[C@@H]2[C@H]([C@H](O)C[C@]2(C)O)[C@@]2(C)CC[C@@H]1O2
NCI-H460 lung
  GI50: 16.4 µM
  TGI: 29.9 µM
DU-145 prostate
  GI50: 15.8 µM
  TGI: 31.4 µM
CAKI-1 renal
  GI50: 0.792 µM
  TGI: 18.7 µM
NCI-H226 lung
  GI50: 16.8 µM
  TGI: 31.5 µM
HOP-62 NSCLC
  GI50: 17.7 µM
  TGI: 31.6 µM
NCI-H522 lung
  GI50: 15.2 µM
  TGI: 29.8 µM
HT29 colon
  GI50: 11.8 µM
  TGI: 26.5 µM
SK-MEL-2 melanoma
  GI50: 23.2 µM
  TGI: 50.6 µM
SNB-75 CNS
  GI50: 17 µM
  TGI: 38.9 µM
SK-OV-3 ovarian
  GI50: 20.2 µM
  TGI: 38 µM

## Nc1ccc2[nH]cc(CCC(=O)O)c2c1
DU-145 prostate
  TGI: > 100 µM
CAKI-1 renal
  TGI: > 100 µM
NCI-H226 lung
  TGI: > 100 µM
HOP-62 NSCLC
  TGI: > 100 µM
NCI-H522 lung
  TGI: > 100 µM
HT29 colon
  TGI: > 100 µM
SK-MEL-2 melanoma
  TGI: > 100 µM
SNB-75 CNS
  TGI: > 100 µM
SK-OV-3 ovarian
  TGI: > 100 µM

## O=C(N/N=C/c1c(Cl)cccc1Cl)c1ccc(C(F)(F)F)nc1Nc1cccc(C(F)(F)F)c1
NCI-H460 lung
  GI50: 0.419 µM
  TGI: 6.13 µM
DU-145 prostate
  GI50: 1.79 µM
  TGI: > 32.8 µM
CAKI-1 renal
  GI50: 1.03 µM
  TGI: 13.8 µM
NCI-H226 lung
  GI50: 1.53 µM
  TGI: 6.74 µM
HOP-62 NSCLC
  GI50: 1.29 µM
  TGI: 14.4 µM
NCI-H522 lung
  GI50: 1.76 µM
  TGI: > 33.6 µM
HT29 colon
  GI50: 1.24 µM
  TGI: > 100 µM
SK-MEL-2 melanoma
  GI50: 1.87 µM
  TGI: 8.19 µM
SNB-75 CNS
  GI50: 2.46 µM
  TGI: 54.6 µM
SK-OV-3 ovarian
  GI50: 1.69 µM
  TGI: 6.3 µM

## O=C(NO)c1ccc(CN(c2cnccn2)c2cnccn2)cc1
NCI-H460 lung
  GI50: 14.8 µM
  TGI: 43.6 µM
DU-145 prostate
  GI50: 9.26 µM
  TGI: > 100 µM
CAKI-1 renal
  GI50: 12.7 µM
  TGI: 40.1 µM
NCI-H226 lung
  GI50: 20 µM
  TGI: 65.7 µM
HOP-62 NSCLC
  GI50: 15.4 µM
  TGI: 34.8 µM
NCI-H522 lung
  GI50: 4.19 µM
  TGI: 18 µM
HT29 colon
  GI50: 15.4 µM
  TGI: 38 µM
SK-MEL-2 melanoma
  GI50: 12.2 µM
  TGI: 27 µM
SNB-75 CNS
  GI50: 14.6 µM
  TGI: 38.7 µM
SK-OV-3 ovarian
  GI50: 14.6 µM
  TGI: 29.5 µM

## Cc1ccc(Nc2nnc(-c3ccc4c(c3)OCO4)o2)c(C)c1
NCI-H460 lung
  TGI: > 100 µM
DU-145 prostate
  TGI: > 100 µM
CAKI-1 renal
  TGI: > 100 µM
NCI-H226 lung
  TGI: > 100 µM
HOP-62 NSCLC
  TGI: > 100 µM
NCI-H522 lung
  TGI: > 100 µM
HT29 colon
  TGI: > 100 µM
SK-MEL-2 melanoma
  TGI: > 100 µM
SNB-75 CNS
  TGI: > 100 µM
SK-OV-3 ovarian
  TGI: > 100 µM

## CCCCCc1ccc(S(=O)(=O)Nc2cc(-c3csc(NC(C)=O)n3)ccc2N2CCN(C)CC2)cc1
NCI-H460 lung
  GI50: 4.77 µM
  TGI: 9.9 µM
DU-145 prostate
  GI50: 5.16 µM
  TGI: 9.8 µM
CAKI-1 renal
  GI50: 4.84 µM
  TGI: 9.48 µM
NCI-H226 lung
  GI50: 4.94 µM
  TGI: 10.7 µM
HOP-62 NSCLC
  GI50: 5.51 µM
  TGI: 12.2 µM
NCI-H522 lung
  GI50: 6.35 µM
  TGI: 13 µM
HT29 colon
  GI50: 1.99 µM
  TGI: 8.29 µM
SK-MEL-2 melanoma
  GI50: 5.76 µM
  TGI: 12.6 µM
SNB-75 CNS
  GI50: 3.67 µM
  TGI: 7.98 µM
SK-OV-3 ovarian
  GI50: 5.95 µM
  TGI: 11.5 µM

## Cc1ccc(S(=O)(=O)NC(=O)NC2=NC(C)(C)N(c3ccc(Cl)c(Cl)c3)C(N)=N2)cc1
NCI-H460 lung
  TGI: > 100 µM
DU-145 prostate
  TGI: > 100 µM
CAKI-1 renal
  TGI: > 100 µM
NCI-H226 lung
  TGI: > 100 µM
HOP-62 NSCLC
  TGI: > 100 µM
NCI-H522 lung
  TGI: > 100 µM
HT29 colon
  TGI: > 100 µM
SK-MEL-2 melanoma
  TGI: > 100 µM
SNB-75 CNS
  TGI: > 100 µM
SK-OV-3 ovarian
  TGI: > 100 µM

## CCCCCCCCCCN1CCC(N2CCCCC2)CC1
NCI-H460 lung
  GI50: 2.99 µM
  TGI: 8.03 µM
DU-145 prostate
  GI50: 9.64 µM
  TGI: 21.9 µM
CAKI-1 renal
  GI50: 1.66 µM
  TGI: 3.94 µM
NCI-H226 lung
  GI50: 7.55 µM
  TGI: 23.4 µM
HOP-62 NSCLC
  GI50: 2.38 µM
  TGI: 7.64 µM
NCI-H522 lung
  GI50: 1.93 µM
  TGI: 5.54 µM
HT29 colon
  GI50: 0.606 µM
  TGI: 4.33 µM
SK-MEL-2 melanoma
  GI50: 2.43 µM
  TGI: 6.29 µM
SNB-75 CNS
  GI50: 2.06 µM
  TGI: 6.12 µM
SK-OV-3 ovarian
  GI50: 2.77 µM
  TGI: 8.31 µM

## O=C(Nc1ccc(Cl)c(Cl)c1)Nc1ccccc1O
NCI-H460 lung
  GI50: 4.03 µM
  TGI: 16.1 µM
DU-145 prostate
  GI50: 9.75 µM
  TGI: 31.1 µM
CAKI-1 renal
  GI50: 3.72 µM
  TGI: 20.4 µM
NCI-H226 lung
  GI50: 15.9 µM
  TGI: 53.7 µM
HOP-62 NSCLC
  GI50: 10.6 µM
  TGI: 24.1 µM
NCI-H522 lung
  GI50: 2.65 µM
  TGI: 15.5 µM
HT29 colon
  GI50: 18.5 µM
  TGI: 36.1 µM
SK-MEL-2 melanoma
  GI50: 5.51 µM
  TGI: 17 µM
SNB-75 CNS
  GI50: 13.7 µM
  TGI: 50.5 µM
SK-OV-3 ovarian
  GI50: 16 µM
  TGI: 40.8 µM

## O=c1[nH]c(=O)n([C@H]2CCCO2)cc1F
NCI-H460 lung
  GI50: 291 µM
  TGI: 830 µM and > 3640 µM
DU-145 prostate
  GI50: 910 µM
  TGI: > 5000 µM
CAKI-1 renal
  GI50: 2100 µM
  TGI: > 5000 µM
NCI-H226 lung
  GI50: 3650 µM
  TGI: 720 µM and > 5000 µM
HOP-62 NSCLC
  GI50: 2340 µM
  TGI: 994 µM and > 4660 µM
NCI-H522 lung
  GI50: > 2650 µM
  TGI: > 5000 µM
HT29 colon
  GI50: 1370 µM
  TGI: > 5000 µM
SK-MEL-2 melanoma
  GI50: 1950 µM
  TGI: > 5000 µM
SNB-75 CNS
  GI50: > 5000 µM
  TGI: 826 µM and > 5000 µM
SK-OV-3 ovarian
  GI50: > 3620 µM
  TGI: 984 µM and > 5000 µM

## Cc1cc(C)n(-c2nnc3n2N=C(c2ccc(-c4ccccc4)cc2)CS3)n1
NCI-H460 lung
  GI50: 3.35 µM
  TGI: > 100 µM
DU-145 prostate
  GI50: 3.82 µM
  TGI: > 100 µM
CAKI-1 renal
  GI50: 3.05 µM
  TGI: > 100 µM
NCI-H226 lung
  GI50: 4.24 µM
  TGI: > 100 µM
HOP-62 NSCLC
  GI50: 6.17 µM
  TGI: > 100 µM
NCI-H522 lung
  GI50: 2.95 µM
  TGI: 12.9 µM
HT29 colon
  GI50: 3.11 µM
  TGI: 12.1 µM
SK-MEL-2 melanoma
  GI50: 2.58 µM
  TGI: 7.17 µM
SNB-75 CNS
  GI50: 3.24 µM
  TGI: 54.8 µM
SK-OV-3 ovarian
  GI50: 3.79 µM
  TGI: > 100 µM

## Cn1c(=O)c2c(ncn2CC(=O)Nc2ccc(-c3ccccc3)nn2)n(C)c1=O
NCI-H460 lung
  GI50: > 100 µM
  TGI: > 100 µM
DU-145 prostate
  GI50: > 100 µM
  TGI: > 100 µM
CAKI-1 renal
  GI50: > 100 µM
  TGI: > 100 µM
NCI-H226 lung
  GI50: > 100 µM
  TGI: > 100 µM
HOP-62 NSCLC
  GI50: > 100 µM
  TGI: > 100 µM
NCI-H522 lung
  GI50: > 100 µM
  TGI: > 100 µM
HT29 colon
  GI50: > 100 µM
  TGI: > 100 µM
SK-MEL-2 melanoma
  GI50: > 100 µM
  TGI: > 100 µM
SNB-75 CNS
  GI50: > 100 µM
  TGI: > 100 µM
SK-OV-3 ovarian
  GI50: > 100 µM
  TGI: > 100 µM
